Data: the NIST ThermoML archive (doi:10.1016/j.jct.2017.03.006)

Assay: xn = mol fraction of the nth substance listed
Conditions: Liquid; for viscosity: Concentric cylinders viscometry; for mass density: Vibrating tube method

Cc1ccc(C)c(C)c1 [1,2,4-trimethylbenzene] + CCC(C)O
Conditions | mass density [kg/m3] | viscosity [mPa·s]
323.15 K, 100 kPa, x2 = 0.7001 | – | 0.78
323.15 K, 100 kPa, x2 = 0.7997 | – | 0.88
323.15 K, 100 kPa, x2 = 0.9001 | – | 1.04
333.15 K, 100 kPa, x2 = 0 | 843.6 | 0.562
333.15 K, 100 kPa, x2 = 0.1 | 835.7 | –
333.15 K, 100 kPa, x2 = 0.1001 | – | 0.558
333.15 K, 100 kPa, x2 = 0.1989 | 829.2 | –
333.15 K, 100 kPa, x2 = 0.2261 | – | 0.554
333.15 K, 100 kPa, x2 = 0.3 | – | 0.548
333.15 K, 100 kPa, x2 = 0.3011 | 822.5 | –
333.15 K, 100 kPa, x2 = 0.3966 | – | 0.568
333.15 K, 100 kPa, x2 = 0.4002 | 816 | –
333.15 K, 100 kPa, x2 = 0.5001 | 809.8 | –
333.15 K, 100 kPa, x2 = 0.5298 | – | 0.567
333.15 K, 100 kPa, x2 = 0.5997 | 802.2 | –
333.15 K, 100 kPa, x2 = 0.6001 | – | 0.6
333.15 K, 100 kPa, x2 = 0.6999 | 794.7 | –
333.15 K, 100 kPa, x2 = 0.7001 | – | 0.65
333.15 K, 100 kPa, x2 = 0.7997 | – | 0.72
333.15 K, 100 kPa, x2 = 0.7999 | 787.1 | –
333.15 K, 100 kPa, x2 = 0.9 | 779.1 | –
333.15 K, 100 kPa, x2 = 0.9001 | – | 0.82
333.15 K, 1000 kPa, x2 = 0 | 844.4 | –
333.15 K, 1000 kPa, x2 = 0.1 | 836.5 | –
333.15 K, 1000 kPa, x2 = 0.1989 | 830 | –
333.15 K, 1000 kPa, x2 = 0.3011 | 823.3 | –
333.15 K, 1000 kPa, x2 = 0.4002 | 816.8 | –
333.15 K, 1000 kPa, x2 = 0.5001 | 810.7 | –
333.15 K, 1000 kPa, x2 = 0.5997 | 803.1 | –
333.15 K, 1000 kPa, x2 = 0.6999 | 795.6 | –
333.15 K, 1000 kPa, x2 = 0.7999 | 788 | –
333.15 K, 1000 kPa, x2 = 0.9 | 780 | –
333.15 K, 2000 kPa, x2 = 0 | 845.2 | –
333.15 K, 2000 kPa, x2 = 0.1 | 837.4 | –
333.15 K, 2000 kPa, x2 = 0.1989 | 830.9 | –
333.15 K, 2000 kPa, x2 = 0.3011 | 824.2 | –
333.15 K, 2000 kPa, x2 = 0.4002 | 817.8 | –
333.15 K, 2000 kPa, x2 = 0.5001 | 811.7 | –
333.15 K, 2000 kPa, x2 = 0.5997 | 804 | –
333.15 K, 2000 kPa, x2 = 0.6999 | 796.6 | –
333.15 K, 2000 kPa, x2 = 0.7999 | 789 | –
333.15 K, 2000 kPa, x2 = 0.9 | 781 | –
333.15 K, 5000 kPa, x2 = 0 | 847.6 | –
333.15 K, 5000 kPa, x2 = 0.1 | 840 | –
333.15 K, 5000 kPa, x2 = 0.1989 | 833.5 | –
333.15 K, 5000 kPa, x2 = 0.3011 | 826.9 | –
333.15 K, 5000 kPa, x2 = 0.4002 | 820.4 | –
333.15 K, 5000 kPa, x2 = 0.5001 | 814.4 | –
333.15 K, 5000 kPa, x2 = 0.5997 | 806.9 | –
